Data on two compounds can be found in paper PMC4912077 (PLoS ONE, 2016).

Entries after “also recorded” stand apart in the source; their conditions may differ. Like-named read-outs stand apart in the source and are kept apart here. Some results are limits rather than exact numbers.

One assay addresses Alpha2B (Homo sapiens, UniProt P18089). As to the kind of experiment: NIMH PDSP radioligand binding, Alpha2B. The procedure: (§1) Radioligands and concentrations used for additional 45 CNS receptor binding assays are listed as supporting information (S1 Table). This work was performed by the National Institute of Mental Health Psychoactive Drug Screening Program (NIMH PDSP) as described previously.[26] Briefly target compounds were dissolved in DMSO and subjected to a primary screen at 10,000 nM concentration. […] Additional experimental details are available in the NIMH PDSP assay protocol book.

A further assay deals with H1 (Homo sapiens, UniProt P35367). The assay can be described thus: NIMH PDSP radioligand binding, H1. Here is the method:
as §1

A further assay deals with H3 (Homo sapiens, UniProt Q9Y5N1). As to the kind of experiment: NIMH PDSP radioligand binding, H3. The procedure:
as §1

In the next assay the target is M1 (Homo sapiens, UniProt P11229). As to the kind of experiment: NIMH PDSP radioligand binding, M1.
Sequence of M1 (P11229 whole entry): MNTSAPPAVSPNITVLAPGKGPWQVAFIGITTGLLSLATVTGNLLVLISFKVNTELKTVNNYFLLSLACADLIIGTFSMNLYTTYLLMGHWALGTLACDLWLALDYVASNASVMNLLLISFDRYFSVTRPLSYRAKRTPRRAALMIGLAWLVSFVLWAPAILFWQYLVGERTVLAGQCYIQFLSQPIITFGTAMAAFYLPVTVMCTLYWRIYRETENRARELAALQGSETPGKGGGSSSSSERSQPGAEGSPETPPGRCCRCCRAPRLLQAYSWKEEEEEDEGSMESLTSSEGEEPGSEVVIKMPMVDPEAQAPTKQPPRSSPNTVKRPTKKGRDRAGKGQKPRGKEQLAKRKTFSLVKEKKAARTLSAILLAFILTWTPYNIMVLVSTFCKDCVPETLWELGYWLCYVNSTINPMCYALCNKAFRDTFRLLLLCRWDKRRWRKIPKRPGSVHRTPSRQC
Another assay addresses M5 (Homo sapiens, UniProt P08912). As to the kind of experiment: NIMH PDSP radioligand binding, M5.
The next assay deals with DAT (Homo sapiens, UniProt Q01959). As to the kind of experiment: NIMH PDSP radioligand binding, DAT. Here is the method:
as §1

A further assay has as its target T1, Human SERT (Homo sapiens, UniProt P31645).
T1 construct: expressed in transfected cells; host or cells: HEK293
As to the kind of experiment: Monoamine reuptake inhibition assay, SERT in HEK293 cells. It counts as cell-based. Here is the method: Monoamine reuptake inhibition assays were performed via the NIMH PDSP as previously described.[28] In brief, the neurotransmitter transporter uptake assay kit (R8174) (Molecular Devices) was used. Human monoamine transporters (DAT, NET and SERT) were stably expressed in HEK293 cells. Assay buffer consisted of 20 mM HEPES, 1x HBSS at pH 7.4. Cells were plated in Pol-L-Lys (PLL) coated 384-well black clear bottom cell culture plates with a density of 15,000 cells/well. Cells were incubated for at least 6 h prior to assay. Media was removed and replaced with 20 μL assay buffer and 5 μL of drug or positive control (cocaine or nisoxetine) as a 5X stock. Cells were incubated for 30 min at 37°C. 25 μL of dye solution was then added and following an additional 30 min incubation (at 37°C) fluorescence intensity was measured using a FlexStation II (bottom read mode, excitation wavelength = […], emission = 520 nM with a cutoff of 510 nM). […] Additional details are available in the NIMH PDSP assay protocol book.

The subject of another assay is Sprague–Dawley rats. As to the kind of experiment: Pre-pulse inhibition (PPI) of acoustic startle in rats. Conditions: for ED50: sc, rat, subcutaneous, read-out: ED50 for reduction of average PPI. It counts as in vivo, rat. The procedure: Male Sprague–Dawley rats from Harlan Industries (Indianapolis, IN, USA; initial weight 250–275 g) were housed in pairs under a 12-h reverse light/dark cycle (lights off at 0700 h). Use of a reversed light/dark cycle allows behavioral testing to be conducted during the awake phase of the light/dark cycle. Food and water were available ad libitum. Animals were acclimatized for approximately 1 wk after arrival prior to behavioral testing and maintained in Association for Assessment and Accreditation of Laboratory Animal Care (AAALAC)-approved facilities that meet all federal and state guidelines. Procedures were approved by the University of California San Diego institutional animal care and use committee. Principles of laboratory animal care were followed.
DPH hydrochloride and 2-MXP hydrochloride were dissolved in water containing 5% Tween-80 and administered subcutaneously, 10-min prior to the start of the startle test session. The injection volume was 1 ml/kg.
Eight startle chambers (SR-LAB system, San Diego Instruments, San Diego, CA, USA) were used to measure startle reactivity in rats. The startle test chambers were sound-attenuated, lighted, and ventilated enclosures containing a clear nonrestrictive cylindrical Plexiglas stabilimeter, 8.2 cm in diameter. A high-frequency loudspeaker mounted 24 cm above the Plexiglas cylinder produced all acoustic stimuli. The peak and average amplitudes of the startle response were detected by a piezoelectric accelerometer. At the onset of the startling stimulus, 100 1-ms readings were recorded, and the average amplitude was used to determine the magnitude of the startle response (measured in arbitrary units).
Acoustic startle test sessions consisted of startle trials (pulse-alone) and prepulse trials (prepulse + pulse). The pulse-alone trial consisted of a 40-ms 120-dB pulse of broadband white noise. Prepulse + pulse trials consisted of a 20-ms acoustic prepulse, an 80-ms delay, and then a 40-ms 120-dB startle pulse (100-ms onset–onset). There was an average of 15 s (range = 6–22 s) between trials. During each inter-trial interval, the movements of the animals were recorded once to measure response when no stimulus was present (data not shown). Each startle session began with a 5 min acclimation period to a 65-dB broadband noise that was present continuously throughout the session. One week after arrival, animals were tested in a brief baseline startle/PPI session to create treatment groups matched for levels of startle and PPI. The startle test session contained 12 pulse-alone trials and 36 prepulse + pulse trials (12 prepulses each of 68-, 71-, and 77-dB [equivalent to 3-, 6-, and 12-dB above background]) presented in a pseudo-randomized order. Six pulse-alone trials were presented at the beginning and the end of the test session but were not used in the calculation of PPI values. Raw data for all PPI experiments are provided as supporting information (S5 File).
The amount of PPI was calculated as a percentage score for each prepulse + pulse trial type: %PPI = 100−{[(startle response for prepulse + pulse trial)/(startle response for pulse-alone trial)] × 100}. Startle magnitude was calculated as the average response to all of the pulse-alone trials. PPI data were analyzed with two-factor analysis of variance (ANOVA) with treatment as the between-subjects factor and trial type (prepulse intensity) as a repeated measure. For experiments in which there was no significant interaction between drug and prepulse intensity, PPI data were collapsed across prepulse intensity and average PPI was used as the main dependent measure. ED50 values were calculated using nonlinear regression. Startle magnitude data were analyzed with one-factor ANOVA. Post-hoc analyses were performed using Tukey’s studentized range method. The alpha level was set at 0.05.

Assay [1] has as its system PCP site within the NMDAR channel.
Description: (§2) The reaction was terminated by vacuum filtration using a 24 well cell harvester (Brandel, Gaithersburg, MD) over presoaked GF/B glass fiber filters (Brandel, Gaithersburg, MD). Filters were washed with room temperature assay buffer (3 x 5 mL). […] IC50 values were determined in Graphpad Prism 5.0 using non-linear regression with log-concentration plotted against percent specific binding. […] Ki values were calculated using the equation of Cheng and Prusoff [24]. […] Protein concentration was determined via the Bradford method using Coomassie protein assay reagent (Sigma, USA) [25] with rat albumin (Sigma, USA) as standard. Experiments were performed in duplicate and repeated a minimum of three times.
Assay [2] shares this test system. The assay can be described thus: NMDAR binding, [3H]-MK-801 displacement in rat forebrain homogenate.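 For all read-outs here: IC50 by nonlinear regression of percent specific binding versus log concentration, Ki from IC50 via Cheng-Prusoff, raw counts in CPM, duplicates repeated at least three times.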 Conditions: for Ki: read-out: Ki ± SEM, [3H]-(+)-MK-801, rat forebrain, Cheng-Prusoff.
Description: as §2
In another assay the target is Alpha2A (Homo sapiens, UniProt P08913). As to the kind of experiment: NIMH PDSP radioligand binding, Alpha2A. Here is the method: as §1
Sequence of Alpha2A (P08913 whole entry): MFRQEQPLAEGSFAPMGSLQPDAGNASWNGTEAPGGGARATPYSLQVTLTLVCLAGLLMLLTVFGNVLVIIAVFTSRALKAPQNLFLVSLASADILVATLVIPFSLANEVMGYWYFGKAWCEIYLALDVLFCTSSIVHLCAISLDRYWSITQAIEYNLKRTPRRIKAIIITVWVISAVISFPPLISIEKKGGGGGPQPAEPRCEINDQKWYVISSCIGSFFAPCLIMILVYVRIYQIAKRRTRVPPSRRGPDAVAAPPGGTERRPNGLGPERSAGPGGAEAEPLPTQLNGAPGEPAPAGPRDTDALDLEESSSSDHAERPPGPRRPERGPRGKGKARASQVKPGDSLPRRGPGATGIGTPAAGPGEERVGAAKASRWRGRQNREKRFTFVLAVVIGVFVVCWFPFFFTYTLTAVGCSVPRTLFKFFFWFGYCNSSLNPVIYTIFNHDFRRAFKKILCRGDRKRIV

T1 sequence (P31645 whole entry): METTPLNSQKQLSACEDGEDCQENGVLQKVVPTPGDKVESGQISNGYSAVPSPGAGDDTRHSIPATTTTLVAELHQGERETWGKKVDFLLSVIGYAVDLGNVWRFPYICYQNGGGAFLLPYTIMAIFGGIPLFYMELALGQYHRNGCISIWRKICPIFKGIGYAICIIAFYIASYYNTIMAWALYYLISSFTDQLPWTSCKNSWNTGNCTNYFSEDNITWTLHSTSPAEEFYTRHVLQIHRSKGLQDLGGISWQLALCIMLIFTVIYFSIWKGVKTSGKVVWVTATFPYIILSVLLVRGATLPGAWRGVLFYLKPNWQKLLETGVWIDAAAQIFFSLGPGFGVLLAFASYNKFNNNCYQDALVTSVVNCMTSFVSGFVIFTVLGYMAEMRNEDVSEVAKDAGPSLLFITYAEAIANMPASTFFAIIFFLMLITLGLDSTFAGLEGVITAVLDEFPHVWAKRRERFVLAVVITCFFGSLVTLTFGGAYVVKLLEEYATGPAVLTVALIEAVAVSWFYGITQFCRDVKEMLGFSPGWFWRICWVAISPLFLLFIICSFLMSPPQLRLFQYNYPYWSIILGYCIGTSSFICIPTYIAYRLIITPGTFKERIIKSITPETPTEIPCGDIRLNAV
Sequence of H1 (P35367 whole entry): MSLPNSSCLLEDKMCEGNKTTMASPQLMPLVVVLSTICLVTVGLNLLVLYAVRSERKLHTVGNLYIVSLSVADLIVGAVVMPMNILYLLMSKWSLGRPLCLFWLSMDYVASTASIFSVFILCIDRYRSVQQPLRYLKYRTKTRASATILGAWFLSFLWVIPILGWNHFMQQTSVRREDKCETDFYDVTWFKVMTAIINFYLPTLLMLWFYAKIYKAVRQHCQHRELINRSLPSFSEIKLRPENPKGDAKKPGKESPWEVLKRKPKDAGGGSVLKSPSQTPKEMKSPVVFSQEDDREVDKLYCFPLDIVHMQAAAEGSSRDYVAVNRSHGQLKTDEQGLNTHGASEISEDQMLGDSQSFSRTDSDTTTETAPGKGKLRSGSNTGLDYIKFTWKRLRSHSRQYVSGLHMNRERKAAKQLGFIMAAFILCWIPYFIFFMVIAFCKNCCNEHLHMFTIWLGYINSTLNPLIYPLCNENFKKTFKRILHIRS
Sequence of M5 (P08912 whole entry): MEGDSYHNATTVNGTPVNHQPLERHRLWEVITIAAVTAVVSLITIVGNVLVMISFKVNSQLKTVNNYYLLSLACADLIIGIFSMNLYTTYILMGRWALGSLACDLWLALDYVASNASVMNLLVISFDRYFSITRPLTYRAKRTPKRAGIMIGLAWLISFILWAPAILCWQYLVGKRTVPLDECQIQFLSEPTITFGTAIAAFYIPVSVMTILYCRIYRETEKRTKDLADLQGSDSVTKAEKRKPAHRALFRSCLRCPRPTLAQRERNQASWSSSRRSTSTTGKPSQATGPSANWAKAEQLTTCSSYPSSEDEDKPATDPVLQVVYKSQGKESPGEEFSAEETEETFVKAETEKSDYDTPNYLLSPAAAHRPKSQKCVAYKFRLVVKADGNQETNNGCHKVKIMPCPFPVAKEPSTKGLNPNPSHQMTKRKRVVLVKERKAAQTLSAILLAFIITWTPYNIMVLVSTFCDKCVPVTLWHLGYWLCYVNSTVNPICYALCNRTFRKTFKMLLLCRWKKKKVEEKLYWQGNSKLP
Sequence of DAT (Q01959 whole entry): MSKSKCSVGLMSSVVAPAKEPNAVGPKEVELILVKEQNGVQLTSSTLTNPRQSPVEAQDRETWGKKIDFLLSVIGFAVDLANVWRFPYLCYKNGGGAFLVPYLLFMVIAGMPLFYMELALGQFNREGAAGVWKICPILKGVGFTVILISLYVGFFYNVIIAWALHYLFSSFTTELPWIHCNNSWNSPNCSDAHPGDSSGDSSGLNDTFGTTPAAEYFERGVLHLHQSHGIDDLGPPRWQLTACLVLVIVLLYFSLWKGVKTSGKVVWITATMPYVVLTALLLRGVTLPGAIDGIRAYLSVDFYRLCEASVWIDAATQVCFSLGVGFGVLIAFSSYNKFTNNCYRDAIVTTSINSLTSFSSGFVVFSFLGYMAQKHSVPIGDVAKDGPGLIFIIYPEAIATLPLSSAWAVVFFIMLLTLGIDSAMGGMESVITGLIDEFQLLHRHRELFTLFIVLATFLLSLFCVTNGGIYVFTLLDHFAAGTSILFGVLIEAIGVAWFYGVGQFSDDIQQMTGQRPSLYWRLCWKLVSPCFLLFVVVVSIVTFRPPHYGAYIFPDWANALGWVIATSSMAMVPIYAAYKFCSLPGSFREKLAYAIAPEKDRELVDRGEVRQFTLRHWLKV
Sequence of H3 (Q9Y5N1 whole entry): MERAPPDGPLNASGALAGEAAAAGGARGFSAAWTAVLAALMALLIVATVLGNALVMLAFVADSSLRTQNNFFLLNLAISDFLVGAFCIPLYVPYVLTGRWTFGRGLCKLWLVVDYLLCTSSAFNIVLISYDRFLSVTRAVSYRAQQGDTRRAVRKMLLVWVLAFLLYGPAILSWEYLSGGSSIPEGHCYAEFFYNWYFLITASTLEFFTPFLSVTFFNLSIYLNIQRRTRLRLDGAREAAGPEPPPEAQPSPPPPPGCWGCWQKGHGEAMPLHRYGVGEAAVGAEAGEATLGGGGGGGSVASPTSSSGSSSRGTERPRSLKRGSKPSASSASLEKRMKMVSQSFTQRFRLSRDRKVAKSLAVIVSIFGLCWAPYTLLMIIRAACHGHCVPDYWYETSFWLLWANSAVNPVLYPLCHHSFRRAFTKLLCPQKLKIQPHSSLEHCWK
Sequence of Alpha2B (P18089 whole entry): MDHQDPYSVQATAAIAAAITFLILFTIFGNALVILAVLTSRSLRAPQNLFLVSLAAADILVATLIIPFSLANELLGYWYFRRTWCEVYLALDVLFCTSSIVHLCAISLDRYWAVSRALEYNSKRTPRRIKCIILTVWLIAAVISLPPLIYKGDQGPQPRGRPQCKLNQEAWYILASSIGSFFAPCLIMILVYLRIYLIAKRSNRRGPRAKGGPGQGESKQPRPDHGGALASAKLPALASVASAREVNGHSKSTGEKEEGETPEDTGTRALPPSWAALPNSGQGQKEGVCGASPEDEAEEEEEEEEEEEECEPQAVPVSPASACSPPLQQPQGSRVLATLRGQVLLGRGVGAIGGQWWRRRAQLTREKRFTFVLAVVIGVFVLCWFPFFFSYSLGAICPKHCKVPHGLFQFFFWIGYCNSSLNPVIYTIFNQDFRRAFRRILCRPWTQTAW

In the case of `c1ccc(CC(c2ccccc2)N2CCCCC2)cc1` (centres unmarked) [DPH, diphenidine], the Ki (commonly a measure of affinity in units of concentration, obtained from inhibition or displacement) at Alpha2B is 4.38 µM; at H1 it was 1.34 µM; on H3 it was 1.02 µM; at M1 it was 2.65 µM; on M5, 1.65 µM; at DAT, 0.317 µM. The inhibition constant Ki in assay [2] was 0.0182 ± 0.0022 µM. Moreover, the concentration for half-maximal inhibition (IC50) – broadly, the concentration at which inhibition is half-maximal – against Human SERT was above 10 µM; in assay [1], 0.0286 ± 0.0035 µM. In the assay on Sprague–Dawley rats (10 mg/kg s.c., first dose-response experiment), the “effect on average PPI” value is “significantly reduced average PPI”. Further, the “effect on PPI” value in the assay on Sprague–Dawley rats (10, 20 and 30 mg/kg s.c., second experiment) is reported as “reduced PPI at all three prepulse intensities”. The results for the 50% effective dose (ED50) in the assay on Sprague–Dawley rats (10 min before test) and in the assay on Sprague–Dawley rats (95% CI in parentheses) were 9.5 mg/kg and 31.5 µmol/kg, respectively. Also, the “NMDAR affinity relative to ketamine” value in [2] (higher affinity) was ~ 18 fold.

As for `COc1ccccc1C(Cc1ccccc1)N1CCCCC1` (centres unmarked) [2-MXP, 2-methoxydiphenidine], the Ki stood at 2 µM on Alpha2A; 0.533 µM on H1; 1.53 µM at M5; 2.91 µM at DAT; 0.036 ± 0.0037 µM in assay [2]. Besides, the IC50 on Human SERT was above 10 µM; in assay [1] it was 0.0565 ± 0.0058 µM. Moreover, the “effect on PPI” value is on record as “did disrupt PPI; also recorded: significant inhibition of PPI” with Sprague–Dawley rats (20 mg/kg s.c.) and “did not alter PPI” with Sprague–Dawley rats (doses up to 10 mg/kg s.c.).
